Test results as given in patent US9776976B2, “Triazolone compounds and uses thereof” (Inception 2, Inc., priority 2013, dated 2017).
Where two headings read alike, the source gives them in different places.

Tests used:
Assay type in all cases: cell-based
human PPAR β/δ = target: T1, human PPAR β/δ (Homo sapiens, UniProt Q03181); assay: Human PPAR β/δ reporter assay (luciferase, Indigo Biosciences kit); settings: antagonist mode, agonist at ~EC80; read-out: PPARδ Luciferase IC50
T1 construct: host or cells: engineered reporter cells (analogous to the PPARα kit)
T1 sequence (Q03181 1-441): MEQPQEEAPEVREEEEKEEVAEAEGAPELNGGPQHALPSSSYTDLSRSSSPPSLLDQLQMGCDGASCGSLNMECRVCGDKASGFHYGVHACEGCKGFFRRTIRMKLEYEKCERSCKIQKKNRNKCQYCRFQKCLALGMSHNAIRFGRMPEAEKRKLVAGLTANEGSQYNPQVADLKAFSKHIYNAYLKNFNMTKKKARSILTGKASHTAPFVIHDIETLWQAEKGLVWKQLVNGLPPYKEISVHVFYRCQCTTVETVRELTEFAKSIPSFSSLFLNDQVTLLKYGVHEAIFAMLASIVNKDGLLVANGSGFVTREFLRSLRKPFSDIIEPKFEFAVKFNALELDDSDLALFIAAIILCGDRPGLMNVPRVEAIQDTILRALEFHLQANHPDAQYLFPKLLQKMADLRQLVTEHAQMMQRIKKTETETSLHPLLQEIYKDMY
Protocol: (§1) Target Selectivity Assays
(§2) To determine species selectivity, a Mouse PPARα Reporter Assay System was used (Indigo Biosciences, Cat. #M00111). Activity of test compounds to antagonize or agonize other isoforms of human PPAR, for example β/δ and γ, were assessed using the corresponding kits from Indigo Biosciences (Cat. #IB00121 and #IB00101, respectively). In addition to PPAR activity, compounds were also screened for activity against other nuclear hormone receptors including Estrogen Receptor β, Glucocorticoid Receptor and Thyroid Receptor β using commercially available kits (Indigo Biosciences, Cat. #IB00411, IB00201 and IB01101, respectively). Each assay system from Indigo Biosciences uses technology analogous to the human PPARα kit, with the variance being that the cells used for each assay were engineered to over-express the receptor of interest. In addition, the appropriate receptor agonist (included with each kit) was used at ˜EC80 for assays in which antagonist potency was being assessed.

human PPAR γ = target: T2, human PPAR γ (Homo sapiens, UniProt P37231); assay: Human PPARγ reporter assay (Indigo Biosciences kit)
T2 sequence (P37231 1-505): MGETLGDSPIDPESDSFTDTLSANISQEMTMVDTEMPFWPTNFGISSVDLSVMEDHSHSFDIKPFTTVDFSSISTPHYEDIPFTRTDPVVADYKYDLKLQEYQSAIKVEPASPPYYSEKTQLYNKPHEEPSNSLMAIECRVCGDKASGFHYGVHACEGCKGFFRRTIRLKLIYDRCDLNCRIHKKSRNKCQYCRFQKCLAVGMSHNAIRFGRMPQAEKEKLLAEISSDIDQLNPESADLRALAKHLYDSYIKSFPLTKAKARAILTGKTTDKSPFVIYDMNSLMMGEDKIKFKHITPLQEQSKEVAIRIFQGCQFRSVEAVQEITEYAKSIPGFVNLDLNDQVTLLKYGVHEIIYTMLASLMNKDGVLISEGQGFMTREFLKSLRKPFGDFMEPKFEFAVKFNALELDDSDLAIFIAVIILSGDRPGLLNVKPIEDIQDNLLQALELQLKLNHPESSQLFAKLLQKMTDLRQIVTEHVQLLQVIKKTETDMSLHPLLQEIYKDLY
Protocol: as §1, §2

Human PPARα = target: T3, Human PPARα (Homo sapiens, UniProt Q07869); assay: Human PPARα Reporter Assay (luciferase, Indigo Biosciences); settings: antagonist mode, reporter cells, overnight incubation
T3 construct: host or cells: proprietary non-human mammalian cells
T3 sequence (Q07869 1-468): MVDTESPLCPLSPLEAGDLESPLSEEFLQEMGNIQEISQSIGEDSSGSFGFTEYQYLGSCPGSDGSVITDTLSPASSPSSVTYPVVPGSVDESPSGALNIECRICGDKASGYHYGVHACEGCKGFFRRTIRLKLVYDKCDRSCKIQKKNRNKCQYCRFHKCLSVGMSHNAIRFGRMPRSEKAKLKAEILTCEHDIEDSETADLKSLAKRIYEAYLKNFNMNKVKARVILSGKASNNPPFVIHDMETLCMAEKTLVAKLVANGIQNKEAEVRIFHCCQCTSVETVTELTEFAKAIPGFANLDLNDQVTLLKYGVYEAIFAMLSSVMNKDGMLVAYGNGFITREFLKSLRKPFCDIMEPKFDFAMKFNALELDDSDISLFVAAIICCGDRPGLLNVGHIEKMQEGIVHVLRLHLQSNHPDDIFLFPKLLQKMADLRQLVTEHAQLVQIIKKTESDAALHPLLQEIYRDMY
Protocol: Human PPARα Reporter Assay The screening of test compounds for agonist or antagonist activities against human PPARα receptors was performed using a commercial kit, Human PPARα Reporter Assay System (Indigo Biosciences, Cat. #IB00111). This nuclear receptor assay system utilizes proprietary non-human mammalian cells engineered to provide constitutive, high-level expression of Human PPARα. Because these cells incorporate a PPARα-responsive luciferase reporter gene, quantifying expressed luciferase activity provides a sensitive surrogate measure of PPARα activity in the treated cells. The primary application of this reporter assay system is in the screening of test samples to quantify any functional activity, either agonist or antagonist, that they may exert against human PPARα. […] Briefly, reporter cells are dispensed into wells of the assay plate and then immediately dosed with test compounds. Following an overnight incubation, the treatment media is discarded and Luciferase Detection Reagent (LDR) is added. The intensity of light emission from the ensuing luciferase reaction provides a sensitive measure that is directly proportional to the relative level of PPARα activation in the reporter cells.

[1] = antagonist mode, agonist at ~EC80, read-out: PPARγ

Structure (SMILES) | IC50 (human PPAR β/δ) | IC50 (human PPAR γ; [1]) | IC50 (Human PPARα) | IC50 (human PPAR γ)
CCOc1ccc(-c2ccc(CCCc3nn(-c4ccc(C(F)(F)F)cc4)c(=O)n3C3CCC(C)CC3)cc2)cc1CC(=O)O (stereo not drawn) [Example 5] | 125 nM | 40000 nM | 109 nM | –
CCOc1ccc(-c2ccc(CCCc3nn(-c4ccc(C(F)(F)F)cc4)c(=O)n3C3CCCC(C)C3)cc2)cc1CC(=O)O (stereo not drawn) [Example 6] | 154 nM | 18100 nM | 135 nM | –
CCOc1ccc(-c2ccc(CCCc3nn(-c4ccc(OC(F)(F)F)cc4)c(=O)n3C3CCCCC3)cc2)cc1CC(=O)O [Example 8, 2-(4′-(3-(4-cyclohexyl-5-oxo-1-(4-(trifluoromethoxy)phenyl)-4,5-dihydro-1H-1,2,4-triazol-3-yl)propyl)-4-ethoxy-[1,1% biphenyl]-3-yl)acetic acid] | 505 nM | 27100 nM | 29 nM | –
Cc1cc(CCCc2nn(-c3ccc(C(F)(F)F)cc3)c(=O)n2-c2ccccc2F)ccc1-c1ccc(C(F)(F)F)c(C(=O)O)c1 [Example 10, 4′-(3-(4-(2-fluorophenyl)-5-oxo-1-(4-(trifluoromethyl)phenyl)-4,5-dihydro-1H-1,2,4-triazol-3-yl)propyl)-2′-methyl-(4-trifluoromethyl)-[1,1′-biphenyl-]-3-carboxylic acid] | 198 nM | 28100 nM | 192 nM | –
CCOc1ccc(-c2ccc(CCCc3nn(-c4ccc(C(F)(F)F)cc4)c(=O)n3-c3ccccc3F)cc2C)cc1C(=O)O [Example 11, 4-ethoxy-4′-(3-(4-(2-fluorophenyl)-5-oxo-1-(4-(trifluoromethyl)phenyl)-4,5-dihydro-1H-1,2,4-triazol-3-yl)propyl)-2′-methyl-[1,1% biphenyl-]-3-carboxylic acid] | 124 nM | 24800 nM | 42 nM | –
CCCn1c(CCCc2ccc(-c3cccc(NS(=O)(=O)c4ccccc4)n3)cc2)nn(-c2ccc(C(F)(F)F)cc2)c1=O [Example 13, N-(6-(4-(3-(5-oxo-4-propyl-1-(4-(trifluoromethyl)phenyl)-4,5-dihydro-1H-1,2,4-triazol-3-yl)propyl)phenyl)pyridin-2-yl)benzenesulfonamide] | 1160 nM | > 100000 nM | 182 nM | –
COc1ccc(-c2ccc(CCCc3nn(-c4ccc(C(F)(F)F)cc4)c(=O)n3C3CC3)cc2)cc1CC(=O)O [Example 14, 2-(4′-(3-(4-cyclopropyl-5-oxo-1-(4-(trifluoromethyl)phenyl)-4,5-dihydro-1H-1,2,4-triazol-3-yl)propyl)-4-methoxy-[1,1′-biphenyl]-3-yl)acetic acid] | 697 nM | 53100 nM | 108 nM | –
CCCOc1ccc(-c2ccc(CCCc3nn(-c4ccc(C(F)(F)F)cc4)c(=O)n3C3CC3)cc2)cc1CC(=O)O [Example 17, 2-(4′-(3-(4-cyclopropyl-5-oxo-1-(4-(trifluoromethyl)phenyl)-4,5-dihydro-1H-1,2,4-triazol-3-yl)propyl)-4-propoxy-[1,1′-biphenyl-]-3-yl)acetic acid] | 485 nM | 30700 nM | 43 nM | –
CCOc1ccc(-c2ccc(CCCc3nn(-c4ccc(C(F)(F)F)cc4)c(=O)n3-c3ccccc3OC)cc2)cc1CC(=O)O [Example 26] | – | – | – | 14900 nM

More lines, main results first:

IC50 (human PPAR β/δ) | IC50 (human PPAR γ; [1]) | IC50 (Human PPARα) | Structure (SMILES) | IC50 (human PPAR γ)
474 nM | 50000 nM | 113 nM | CCCn1c(CCCc2ccc(-c3ccc(OCC)c(CC(=O)O)c3)cc2)nn(-c2ccc(C(F)(F)F)cc2)c1=O [Example 3, 2-(4-ethoxy-4′-(3-(5-oxo-4-propyl-1-(4-(trifluoromethyl)phenyl)-4,5-dihydro-1H-1,2,4-triazol-3-yl)propyl)-[1,1′-biphenyl]-3-yl)acetic acid] | –
220 nM | 19400 nM | 324 nM | CCOc1ccc(-c2ccc(CCCc3nn(-c4ccc(C(F)(F)F)cc4)c(=O)n3C3CCCCC3C)cc2)cc1CC(=O)O (stereo not drawn) [Example 7] | –
312 nM | 39800 nM | 250 nM | CCOc1ccc(-c2ccc(CCCc3nn(-c4ccc(C(F)(F)F)cc4)c(=O)n3-c3ccccc3F)cc2C)cc1CC(=O)O [Example 9, 2-(4-ethoxy-4′-(3-(4-(2-fluorophenyl)-5-oxo-1-(4-(trifluoromethyl)phenyl)-4,5-dihydro-1H-1,2,4-triazol-3-yl)propyl)-2′-methyl-[1,1% biphenyl]-3-yl)acetic acid] | –
8360 nM | > 100000 nM | 38800 nM | COc1ccc(-c2ccc(CCCc3nn(-c4ccc(C(F)(F)F)cc4)c(=O)n3Cc3ccccc3F)cc2)cc1CC(=O)O [Example 15, 2-(4′-(3-(4-(2-fluorobenzyl)-5-oxo-1-(4-(trifluoromethyl)phenyl)-4,5-dihydro-1H-1,2,4-triazol-3-yl)propyl)-4-methoxy-[1,1′-biphenyl]-3-yl)acetic acid] | –
32 nM | 22300 nM | 31 nM | CCOc1ccc(-c2ccc(CCCc3nn(-c4ccc(C(F)(F)F)cc4)c(=O)n3-c3ccccc3Cl)cc2)cc1CC(=O)O [Example 19] | –
363 nM | 32900 nM | 150 nM | CCOc1ccc(-c2ccc(CCCc3nn(-c4ccc(C(F)(F)F)cc4)c(=O)n3CC(C)C)cc2)cc1CC(=O)O [Example 20] | –
67 nM | 55200 nM | 30 nM | CCOc1ccc(-c2ccc(CCCc3nn(-c4ccc(C(F)(F)F)cc4)c(=O)n3-c3cccc(F)c3)cc2)cc1CC(=O)O [Example 21] | –
61 nM | 44500 nM | 88 nM | CCOc1ccc(-c2ccc(CCCc3nn(-c4ccc(C(F)(F)F)cc4)c(=O)n3-c3cc(F)ccc3F)cc2)cc1CC(=O)O [Example 22] | –
– | 63200 nM | – | CCOc1ccc(-c2ccc(CCCc3nn(-c4ccc(C(F)(F)F)cc4)c(=O)n3-c3ccccc3F)cc2)cc1C(=O)O [Example 32, 4-ethoxy-4′-(3-(4-(2-fluorophenyl)-5-oxo-1-(4-(trifluoromethyl)phenyl)-4,5-dihydro-1H-1,2,4-triazol-3-yl)propyl)-[1,1′-biphenyl]-3-carboxylic acid] | –
– | 79000 nM | – | CCOc1ccc(-c2ccc(CCCc3nn(-c4ccccc4F)c(=O)n3-c3ccc(C(F)(F)F)cc3)cc2)cc1CC(=O)O [Example 36, 2-(4-ethoxy-4′-(3-(1-(2-fluorophenyl)-5-oxo-4-(4-(trifluoromethyl)phenyl)-4,5-dihydro-1H-1,2,4-triazol-3-yl)propyl)-[1,1′-biphenyl]-3-yl)acetic acid] | –
